pEC50: −log10 of the molar value. Counter-ions that a name gives are not always drawn.
Target: T1, GABAB receptor (Mus musculus, UniProt Q80T41+Q9WV18)
T1 construct: a mouse brain cortex membrane (4 μg); tissue Japan SLC, Inc. (ddY mice); host or cells: mouse brain cortex membrane
Test: [35S]GTPγS binding test for PAM action, mouse brain cortical membrane
Assay type: biochemical
Conditions: 100 μM GABA = 100%; for pEC50: concentration raising reaction rate from 20% with 0.3 μM GABA to 50%, mouse brain cortex membrane, read-out: Potency (PAM Potency of GABAB); for Emax: read-out: Efficacy (PAM Efficacy of GABAB)
Description: The function of the GABAB receptor of the compound of the present invention was evaluated using a [^35S] GTPγS binding test. This method is used for the detection of the PAM action of the compound on the GABAB receptor (Journal of Pharmacology and Experimental Therapeutics, 2003, vol. 307(1), p. 322-330; and Molecular Pharmacology, 2001, vol. 60(5), p. 963-971).
The mouse brain cortical membrane was prepared with reference to a method for preparing a rat brain membrane (European Journal of Pharmacology, 1990, vol. 187 (1), p. 27-38).
The cortex (about 30 g) was cut out of the brains of 90 ddY mice (Japan SLC, Inc.). An A buffer was added to the cortex (cortex/A buffer=about 1:3 (wt/vol)), and homogenized with a glass Teflon-lined homogenizer (Teflon: registered trademark) on ice. The homogenate was centrifuged (750 g, 10 min, 4° C.) and a supernatant was then obtained. An A buffer (90 mL) was added to pellets and homogenized on ice, and a supernatant (750 g, 10 min, 4° C.) was then obtained. By repeating this operation, the supernatant was collected.
The supernatant was centrifuged (18000 g, 15 min, 4° C.). Ultrapure water (54 mL) was added to the pellets, left to stand for 30 min on ice, and then centrifuged (39000 g, 20 min, 4° C.). The pellets were suspended in a KH buffer (54 mL), repeatedly frozen and thawed, and centrifuged (18000 g, 15 min) at 4° C. The buffer was added to the pellets and then frozen and thawed, and this operation was repeated until the centrifugation. By a Bradford method using a protein assay (Protein assay CBB solution; Nacalai Tesque, Inc.), a KH buffer suspension of the pellet was prepared at a protein concentration of 10 mg/mL.
The PAM action of the GABAB receptor in the mouse brain cortex of a test drug was evaluated. To each of wells of a 96-well microplate, a test drug diluted with a B buffer at each concentration (3 nM to 30 μM), a mouse brain cortex membrane (4 μg), [^35S] GTPγS (final concentration of 0.34 nM, Muromachi Yakuhin Co., Ltd.; Institute of Isotopes Co., Ltd.), GABA (final concentration of 0.3 μM; Sigma) were added in this order, followed by standing at room temperature for 1 hour. With a harvester (Filtermate, Perkin-Elmer, Inc.), the suspension was suction-filtered through a glass filter (UniFilter 96-well GF/B filter plates, Perkin-Elmer, Inc.). The glass filter was washed with a C buffer that had been ice-cooled. After drying the glass filter, a liquid scintillation cocktail (50 μL, MicroScinti-PS; PerkinElmer, Inc.) was added to each well. The amount of [^35S] GTPγS bound to the membrane was measured on a plate reader (TopCount, PerkinElmer, Inc.).
The maximum reaction rate of 100 μM GABA was taken as 100%. […] At a time when the test drug was not added, the concentration of the test drug that increased the reaction rate from 20% with 0.3 μM GABA to 50% was taken as a PAM Potency (μM) of the GABAB of the test drug. In the presence of 0.3 μM GABA, the maximum reaction rate of the effect on the GABAB receptor when the test drug was administered up to maximum 30 μM was taken as a PAM Efficacy (%) of the GABAB of the test drug.
The Potency and Efficacy of several representative Example Compounds of the present invention are shown in Table below (In the Table, Ex represents Example Compound No. The “Potency” represents the PAM Potency of GABAB of the test drug, and the “Efficacy” represents PAM Efficacy (%) of GABAB of the test drug. These shall apply hereinafter).

[1] = maximum reaction rate in presence of 0.3 μM GABA, test drug up to 30 μM

T1 sequence (Q9WV18 20-960): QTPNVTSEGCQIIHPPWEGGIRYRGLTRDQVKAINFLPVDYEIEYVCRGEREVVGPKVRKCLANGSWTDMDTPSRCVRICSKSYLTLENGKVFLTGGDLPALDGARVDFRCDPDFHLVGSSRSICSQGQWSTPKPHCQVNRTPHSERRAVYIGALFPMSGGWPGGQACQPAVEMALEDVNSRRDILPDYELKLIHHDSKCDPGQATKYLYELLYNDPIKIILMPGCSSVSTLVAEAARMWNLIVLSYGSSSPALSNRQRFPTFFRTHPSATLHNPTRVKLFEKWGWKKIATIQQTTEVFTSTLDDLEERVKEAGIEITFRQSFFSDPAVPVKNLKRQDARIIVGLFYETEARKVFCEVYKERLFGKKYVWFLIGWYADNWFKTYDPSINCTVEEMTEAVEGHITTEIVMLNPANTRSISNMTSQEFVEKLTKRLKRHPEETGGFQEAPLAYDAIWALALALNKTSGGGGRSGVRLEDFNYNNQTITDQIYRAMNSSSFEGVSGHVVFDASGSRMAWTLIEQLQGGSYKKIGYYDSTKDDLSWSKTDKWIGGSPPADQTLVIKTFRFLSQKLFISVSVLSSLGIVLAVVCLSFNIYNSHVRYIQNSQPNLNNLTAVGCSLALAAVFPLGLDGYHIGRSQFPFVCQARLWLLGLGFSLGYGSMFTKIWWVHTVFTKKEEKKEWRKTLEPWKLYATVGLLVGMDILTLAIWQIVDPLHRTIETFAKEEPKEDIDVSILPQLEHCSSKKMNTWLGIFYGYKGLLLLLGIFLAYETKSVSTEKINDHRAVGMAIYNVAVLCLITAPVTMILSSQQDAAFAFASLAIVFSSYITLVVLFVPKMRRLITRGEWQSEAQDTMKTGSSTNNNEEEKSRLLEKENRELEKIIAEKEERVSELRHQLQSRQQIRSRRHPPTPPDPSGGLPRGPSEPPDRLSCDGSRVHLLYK
T1 sequence (Q80T41 41-940): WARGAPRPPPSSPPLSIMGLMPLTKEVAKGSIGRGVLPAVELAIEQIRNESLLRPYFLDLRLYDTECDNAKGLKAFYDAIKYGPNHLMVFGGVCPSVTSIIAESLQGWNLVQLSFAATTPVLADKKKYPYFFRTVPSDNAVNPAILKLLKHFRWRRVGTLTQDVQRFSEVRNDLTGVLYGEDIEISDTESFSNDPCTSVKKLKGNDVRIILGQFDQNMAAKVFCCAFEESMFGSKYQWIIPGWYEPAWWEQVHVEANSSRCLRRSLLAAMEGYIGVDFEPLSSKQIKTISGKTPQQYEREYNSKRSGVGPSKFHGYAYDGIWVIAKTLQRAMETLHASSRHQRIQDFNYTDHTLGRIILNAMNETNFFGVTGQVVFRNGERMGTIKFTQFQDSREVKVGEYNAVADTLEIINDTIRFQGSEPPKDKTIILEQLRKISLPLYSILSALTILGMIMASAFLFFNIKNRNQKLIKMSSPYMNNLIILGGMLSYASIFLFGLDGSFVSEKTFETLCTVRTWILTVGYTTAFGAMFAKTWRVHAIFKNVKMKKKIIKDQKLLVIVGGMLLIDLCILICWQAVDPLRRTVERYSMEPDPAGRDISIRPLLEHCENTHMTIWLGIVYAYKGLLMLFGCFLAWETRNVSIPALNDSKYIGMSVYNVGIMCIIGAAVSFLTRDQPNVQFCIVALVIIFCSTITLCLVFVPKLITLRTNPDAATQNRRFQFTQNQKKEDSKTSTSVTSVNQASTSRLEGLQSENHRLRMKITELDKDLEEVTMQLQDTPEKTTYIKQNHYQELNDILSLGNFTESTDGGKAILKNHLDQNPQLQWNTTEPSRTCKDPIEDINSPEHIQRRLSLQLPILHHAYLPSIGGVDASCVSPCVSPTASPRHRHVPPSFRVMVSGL

| Structure (SMILES) | pEC50 | Efficacy (PAM Efficacy of GABAB) [1] | Emax [1] |
| --- | --- | --- | --- |
| Cc1nc(CN2CC[C@@H](O)[C@H](O)C2)c2cc(C3CCC(C)(C)CC3)sc2n1 (single isomer, unassigned) [Ex31-1, trans-1-{[6-(4,4-dimethylcyclohexyl)-2-methylthieno[2,3-d]pyrimidin-4-yl]methyl}piperidine-3,4-diol] | 6.74 | 191% | – |
| Cc1nc(CN2CCC(O)(CO)CC2)c2cc(C3CCC(C)(C)CC3)sc2n1 [Ex4] | 6.70 | – | 161% |
| Cc1nc(CN2CC[C@@H](O)[C@H](O)C2)c2cc(C3CCC(C)(C)CC3)sc2n1 [Ex5] | 6.62 | – | 176% |
| Cc1nc(CN2CCC(CO)(CO)CC2)c2cc(C3CCC(C)(C)CC3)sc2n1 [Ex7] | 6.62 | – | 139% |
| Cc1nc(CN2CCC(O)(C(F)(F)F)CC2)c2cc(C3CCC(C)(C)CC3)sc2n1 [Ex12] | 6.64 | – | 377% |
| Cc1nc(CN2C[C@@H](C)O[C@@H](C)C2)c2cc(C3CCC(C)(C)CC3)sc2n1 [Ex39] | 6.38 | – | 165% |
| Cc1nc(CN2CCOC(C)(C)C2)c2cc(C3CCC(C)(C)CC3)sc2n1 [Ex40] | 6.28 | – | 203% |
| Cc1nc(CN2CCC3(CC2)CC3)c2cc(C3CCC(C)(C)CC3)sc2n1 [Ex43] | 6.59 | – | 118% |
| Cc1nc(CN2CCC(C)(C)CC2)c2cc(C3CCC(C)(C)CC3)sc2n1 [Ex44] | 6.57 | – | 119% |
| Cc1nc(CN2CCCC(C)(C)C2)c2cc(C3CCC(C)(C)CC3)sc2n1 [Ex45] | 6.36 | – | 134% |
| COC1(CO)CCN(Cc2nc(C)nc3sc(C4CCC(C)(C)CC4)cc23)CC1 [Ex46] | 6.74 | – | 188% |
| Cc1nc(CN2CCC(C)(O)CC2)c2cc(C3CCC(C)(C)CC3)sc2n1 [Ex47] | 6.92 | – | 240% |
| CCC1(O)CCN(Cc2nc(C)nc3sc(C4CCC(C)(C)CC4)cc23)CC1 [Ex48] | 6.59 | – | 238% |
| COCC1(O)CCN(Cc2nc(C)nc3sc(C4CCC(C)(C)CC4)cc23)CC1 [Ex50] | 6.27 | – | 222% |
| Cc1nc(CN2CCC(O)C(F)C2)c2cc(C3CCC(C)(C)CC3)sc2n1 (stereo not drawn) [Ex51] | 6.82 | – | 249% |
| Cc1nc(CN2CCC(O)CC2)c2cc(C3CCC(C)(C)CC3)sc2n1 [Ex52, 1-{[6-(4,4-dimethylcyclohexyl)-2-methylthieno[2,3-d]pyrimidin-4-yl]methyl}piperidin-4-ol hydrochloride] | 6.77 | – | 259% |
| Cc1nc(CN2CC[C@@H](O)[C@@H](O)C2)c2cc(C3CCC(C)(C)CC3)sc2n1 [Ex54] | 6.49 | – | 88% |
| Cc1nc(CN2CCC(F)(F)CC2)c2cc(C3CCC(C)(C)CC3)sc2n1 [Ex55] | 6.60 | – | 175% |
| Cc1nc(CN2CCC(C(F)F)CC2)c2cc(C3CCC(C)(C)CC3)sc2n1 [Ex61] | 6.62 | – | 160% |
| Cc1nc(CN2CCC[C@@H](O)C2)c2cc(C3CCC(C)(C)CC3)sc2n1 [Ex72] | 7.05 | – | 289% |
| Cc1nc(CN2CCC[C@H](O)C2)c2cc(C3CCC(C)(C)CC3)sc2n1 [Ex73] | 7.07 | – | 272% |
| Cc1nc(CN2CCSCC2)c2cc(C3CCC(C)(C)CC3)sc2n1 [Ex74] | 6.72 | – | 244% |
| Cc1nc(CN2CCOCC2(C)C)c2cc(C3CCC(C)(C)CC3)sc2n1 [Ex79] | 7.34 | – | 230% |

Next, values leading:

| pEC50 | Efficacy (PAM Efficacy of GABAB) [1] | Emax [1] | Structure (SMILES) |
| --- | --- | --- | --- |
| 6.42 | – | 134% | Cc1nc(CN2CCOC[C@H]2CO)c2cc(C3CCC(C)(C)CC3)sc2n1 [Ex101] |
| 6.40 | – | 127% | Cc1nc(CN2CCOC[C@@H]2CO)c2cc(C3CCC(C)(C)CC3)sc2n1 [Ex102] |
| 7.10 | – | 218% | Cc1nc(CN2CC[C@@H](O)[C@](C)(O)C2)c2cc(C3CCC(C)(C)CC3)sc2n1 [Ex104] |
| 6.70 | – | 176% | Cc1nc(CN2CCS(=O)(=O)CC2)c2cc(C3CCC4(CC3)CC4)sc2n1 [Ex108, 4-[(1,1-dioxidothiomorpholin-4-yl)methyl]-2-methyl-6-(spiro[2.5]octa-6-yl)thieno[2,3-d]pyrimidine] |
| 6.96 | – | 338% | Cc1nc(CN2CCC(O)C(CO)C2)c2cc(C3CCC(C)(C)CC3)sc2n1 (stereo not drawn) [Ex127] |
| 6.82 | – | 218% | Cc1nc(CN2CCOCC2)c2cc(C3CCC(C)(C)CC3)sc2n1 [Ex132] |
| 8.15 | – | 214% | Cc1nc(CN2CCC(O)CC2(C)C)c2cc(C3CCC(C)(C)CC3)sc2n1 (stereo not drawn) [Ex142] |
| 5.92 | – | 182% | Cc1nc(CN2CC[C@@H](O)[C@@H](F)C2)c2cc(C3CCC(C)(C)CC3)sc2n1 [Ex143] |
| 6.51 | – | 182% | Cc1nc(CN2CC[C@H](O)[C@@H](F)C2)c2cc(C3CCC(C)(C)CC3)sc2n1 [Ex144] |
| 7.00 | – | 258% | Cc1nc(CN2CCC(O)C(C)(C)C2)c2cc(C3CCC(C)(C)CC3)sc2n1 (stereo not drawn) [Ex146] |
| 6.92 | – | 168% | Cc1nc(CN2CCN(C)CC2(C)C)c2cc(C3CCC(C)(C)CC3)sc2n1 [Ex151] |
| 7.23 | – | 180% | CC(=O)N1CCN(Cc2nc(C)nc3sc(C4CCC(C)(C)CC4)cc23)C(C)(C)C1 [Ex153, 1-(4-{[6-(4,4-dimethylcyclohexyl)-2-methylthieno[2,3-d]pyrimidin-4-yl]methyl}-3,3-dimethylpiperazin-1-yl)ethanone hydrochloride] |
| 7.34 | – | 159% | Cc1nc(CN2CCN(C(=O)CO)CC2(C)C)c2cc(C3CCC(C)(C)CC3)sc2n1 [Ex155, 1-(4-{[6-(4,4-dimethylcyclohexyl)-2-methylthieno[2,3-d]pyrimidin-4-yl]methyl}-3,3-dimethylpiperazin-1-yl)-2-hydroxyethanone] |

Reference: patent US9051339B2, “Sulfur-containing bicyclic compound” (Astellas Pharma Inc., priority 2013, dated 2015)
